Experimental data as given in patent publication US20250002453A1, “PHARMACEUTICALLY ACCEPTABLE SALT OF ELIGLUSTAT AND CRYSTAL FORM THEREOF” (SPEROGENIX (SHANGHAI) MEDTECH CO., LTD., priority 2021, published 2025).
“Also recorded” adds a separate entry of the source.

What was measured:
Format in all cases: physicochemical
[1] = Solid state stability assessment (XRPD and HPLC after exposure at 25° C./60% RH and 40° C./75% RH)
Procedure: XRPD patterns are collected on an X-ray powder diffraction analyzer produced by PANalytacal, and Table 2 lists the XRPD parameters.
(§1) The purity test, dynamic solubility and stability test in the experiment are completed by Agilent 1260 high performance liquid chromatography. The salt-forming molar ratio test of ions is completed by ion chromatography test.
After leaving the crystalline form C of 1,5-naphthalene disulfonate in the exposure evaporation at 25° C./60% RH and 40° C./75% RH for 1 week, […] and 4 weeks. The physical and chemical stability of the sample was tested by XRPD and HPLC, and the stability data of crystalline form A of tartrate and free crystalline form A at 1 week, 2 weeks and 4 weeks were used as a reference. At the same time, the stability of crystalline form B of 1,5-naphthalene disulfonate and crystalline form A of oxalate was tested under the conditions of 25° C./60% RH and 40° C./75% RH for 1 week.

[2] = Dynamic solubility test (water, SGF, FaSSIF, FeSSIF; 37° C.; 1, 4 and 24 hours); settings: for S: Solubility (free concentration) / pH (of filtrate) / FC: Crystalline form transformation: 37° C.; for FC: Crystalline form transformation: XRPD of residual solid
Procedure: 0.2 g sodium chloride and 0.1 g Triton X-100 are weighted into a 100 mL volumetric flask. Pure water is added for dissolution, stirred until the solid is completely dissolved, about 1.632 mL hydrochloric acid (1M) is added, and the pH is adjusted to 1.8 with 1M hydrochloric acid or 1M sodium hydroxide, and finally it is diluted to volume with pure water.
0.34 g sodium dihydrogen phosphate (NaH2PO4, anhydrous), 0.042 g sodium hydroxide, and 0.62 g sodium chloride are weighted respectively into a 100 mL volumetric flask, about 48 mL pure water is added for dissolution, the pH is adjusted to 6.5 with 1M hydrochloric acid or 1M sodium hydroxide, and finally it is diluted to volume with pure water to obtain a stock solution. A 50-mL volumetric flask is taken. 0.11 g of SIF powder is added, and dissolved with the above stock solution, then diluted to volume. The powder is completely dissolve by ultrasound.
as §1
The dynamic solubility of crystalline form B/crystalline form C of 1,5-naphthalene disulfonate, crystalline form A of oxalate, crystalline form A of tartrate and free crystalline form A in water and three biological solvents were evaluated.
After sampling at each time point, the samples were centrifugally filtered (0.45 μm PTFE filter head), the free salt concentration and pH value in the filtrate were measured, and the solid samples after centrifugation were tested for XRPD.

[3] = Evaluation of hygroscopicity by Dynamic Vapor Sorption (DVS); settings: for Transformation of crystalline form: after DVS test
Procedure: Dynamic Vapor Sorption (DVS) profiles are collected on the DVS Intrinsic of SMS (Surface Measurement Systems). Relative humidity at 25° C. is corrected with the deliquescent points of LiCl, Mg(NO3)2 and KCl.
The hygroscopicity of crystalline form B/crystalline form C of 1,5-naphthalene disulfonate, crystalline form A of oxalate, crystalline form A of tartrate and free crystalline form A were evaluated by DVS.

[4] = left exposed for 4 weeks at 25° C./60% RH and 40° C./75% RH

Compound	S: Solubility (free concentration) ([2]; FaSSIF, 1 hr)	pH (of filtrate) ([2]; FaSSIF, 1 hr)	FC: Crystalline form transformation ([2]; FaSSIF, 1 hr)	S: Solubility (free concentration) ([2]; FaSSIF, 4 hrs)	pH (of filtrate) ([2]; FaSSIF, 4 hrs)	FC: Crystalline form transformation ([2]; FaSSIF, 4 hrs)	S: Solubility (free concentration) ([2]; FaSSIF, 12 hrs)	pH (of filtrate) ([2]; FaSSIF, 12 hrs)	FC: Crystalline form transformation ([2]; FaSSIF, 12 hrs)	S: Solubility (free concentration) ([2]; H2O, 1 hr)	pH (of filtrate) ([2]; H2O, 1 hr)	FC: Crystalline form transformation ([2]; H2O, 1 hr)	S: Solubility (free concentration) ([2]; H2O, 4 hrs)	pH (of filtrate) ([2]; H2O, 4 hrs)	FC: Crystalline form transformation ([2]; H2O, 4 hrs)	S: Solubility (free concentration) ([2]; H2O, 12 hrs)	pH (of filtrate) ([2]; H2O, 12 hrs)	FC: Crystalline form transformation ([2]; H2O, 12 hrs)	S: Solubility (free concentration) ([2]; SGF, 1 hr)	pH (of filtrate) ([2]; SGF, 1 hr)	further results
CCCCCCCC(=O)N[C@H](CN1CCCC1)[C@H](O)c1ccc2c(c1)OCCO2.CCCCCCCC(=O)N[C@H](CN1CCCC1)[C@H](O)c1ccc2c(c1)OCCO2.O.O.O=S(=O)(O)c1cccc2c(S(=O)(=O)O)cccc12	2900 µg/mL	6.48	No	2800 µg/mL	6.48	No	3000 µg/mL	6.49	No	2000 µg/mL	7.39	No	1900 µg/mL	7.33	No	2000 µg/mL	7.45	No	2600 µg/mL	1.80	change in crystalline form (XRPD) [1, 4]: no change in crystalline form; decrease in HPLC purity [1, 4]: no change in crystalline form or decrease in HPLC purity was observed; FC: Crystalline form transformation ([2]; SGF, 1 hr): No; S: Solubility (free concentration) ([2]; SGF, 4 hrs): 2400 µg/mL; pH (of filtrate) ([2]; SGF, 4 hrs): 1.88; FC: Crystalline form transformation ([2]; SGF, 4 hrs): No; S: Solubility (free concentration) ([2]; SGF, 12 hrs): 2600 µg/mL; pH (of filtrate) ([2]; SGF, 12 hrs): 1.89; FC: Crystalline form transformation ([2]; SGF, 12 hrs): No; Hygroscopic weight gain at 25° C./80% RH ([3]; DVS, 25° C./80% RH): 0.33%; hygroscopic weight gain at 25° C./80% RH ([3]; DVS, 25° C./80% RH): 0.33 wt %; Transformation of crystalline form [3]: No change; Transformation of crystalline form ([3]; listed as crystalline form C of 1,5-naphthalene disulfonate): no change in crystalline form
CCCCCCCC(=O)N[C@H](CN1CCCC1)[C@H](O)c1ccc2c(c1)OCCO2 [Free crystalline form A, reference compound]	4400 µg/mL	7.31	No	4400 µg/mL	7.29	No	4200 µg/mL	7.30	No	120 µg/mL	9.24	No	130 µg/mL	9.03	No	170 µg/mL	8.80	No	6600 µg/mL	7.27	change in crystalline form (XRPD) [1, 4]: no change in crystalline form; decrease in HPLC purity [1, 4]: no change in crystalline form or decrease in HPLC purity was observed; FC: Crystalline form transformation ([2]; SGF, 1 hr): No; S: Solubility (free concentration) ([2]; SGF, 4 hrs): 6700 µg/mL; pH (of filtrate) ([2]; SGF, 4 hrs): 7.26; FC: Crystalline form transformation ([2]; SGF, 4 hrs): No; S: Solubility (free concentration) ([2]; SGF, 12 hrs): 6500 µg/mL; pH (of filtrate) ([2]; SGF, 12 hrs): 7.30; FC: Crystalline form transformation ([2]; SGF, 12 hrs): No; hygroscopicity (in words) ([3]; DVS): almost no hygroscopicity; Hygroscopic weight gain at 25° C./80% RH ([3]; DVS, 25° C./80% RH): 0.01%; Transformation of crystalline form [3]: did not change in crystalline form; also recorded: No change
CCCCCCCC(=O)N[C@H](CN1CCCC1)[C@H](O)c1ccc2c(c1)OCCO2.O=S(=O)(O)c1cccc2c(S(=O)(=O)O)cccc12 [Eliglustat 1,5-naphthalene disulfonate]																					solubility difference in water and simulated gastric fluid ([2]; water versus SGF, in words): small; hygroscopicity compared with eliglustat hemitartrate crystalline form A ([3]; comparison in words): lower hygroscopicity over eliglustat hemitartrate crystalline form A
CCCCCCCC(=O)N[C@H](CN1CCCC1)[C@H](O)c1ccc2c(c1)OCCO2.CCCCCCCC(=O)N[C@H](CN1CCCC1)[C@H](O)c1ccc2c(c1)OCCO2.O=S(=O)(O)c1cccc2c(S(=O)(=O)O)cccc12	2700 µg/mL	6.52	Yes	2700 µg/mL	6.51	Yes	2600 µg/mL	6.52	Yes	1900 µg/mL	7.67	Yes	2000 µg/mL	7.67	Yes	2000 µg/mL	7.75	Yes	2700 µg/mL	1.84	decrease in HPLC purity ([1]; 1 week of exposure at 25° C./60% RH and 40° C./75% RH): no decrease in HPLC purity was observed; change in crystalline form (XRPD) ([1]; left exposed for a week at 40° C./75% RH): partially transformed into the crystalline form C; FC: Crystalline form transformation ([2]; SGF, 1 hr): Yes; S: Solubility (free concentration) ([2]; SGF, 4 hrs): 2500 µg/mL; pH (of filtrate) ([2]; SGF, 4 hrs): 1.75; FC: Crystalline form transformation ([2]; SGF, 4 hrs): Yes; S: Solubility (free concentration) ([2]; SGF, 12 hrs): 2300 µg/mL; pH (of filtrate) ([2]; SGF, 12 hrs): 1.77; FC: Crystalline form transformation ([2]; SGF, 12 hrs): Yes; Hygroscopic weight gain at 25° C./80% RH ([3]; DVS, 25° C./80% RH): 0.59%; Transformation of crystalline form [3]: Change to crystalline; Transformation of crystalline form ([3]; listed as crystalline form B of 1,5-naphthalene disulfonate): changed to crystalline form C; hygroscopic weight gain (in words) ([3]; humidity higher than 80% RH at 25° C.): significant hygroscopic weight gain
